The subject of this assay is histamine induced nasal congestion.

Regarding `NCCc1c[nH]cn1` [Histamine, histamine], the “induction of nasal congestion” value (5% histamine aerosol for 5 minutes) is recorded as “induced congestion in all animals to varying degrees”. In addition, the “nasal congestion and flow restriction pressure” value (5 and 10 minutes post-histamine exposure, Group 1) was “progressive increase in nasal congestion and flow restriction pressure”. Also, for the setting “pilot study, 60, 80 and 100 minute time points”, the “histamine induced congestion without epinephrine” value is reported as “remains elevated at significant levels”.

The values are drawn from patent publication US20210093558A1 (Bryn Pharma, LLC, priority 2018, published 2021).
